Measurements published in US10836921B2, “Ink, ink cartridge, and ink jet recording method” (CANON KABUSHIKI KAISHA, priority 2016, dated 2020).
Read-outs that look alike come from different tables or passages of the source.

Tests used:
[1] = Solubility in water at 20° C. (saturated solubility); assay type: physicochemical
Protocol: As the poorly water-soluble solvent, at least an alcohol having a vapor pressure at 20° C. of 0.5 mmHg or less and a surface tension of 30.0 mN/m or more (hereinafter also called “poorly water-soluble alcohol”) is used.

Surface tension = assay type: physicochemical
Protocol: The present invention will now be more specifically described with reference to preferred embodiments, but the invention is not intended to be limited to the following embodiments. In the present specification, an aqueous ink for ink jet may be simply called “ink”. Physical property values are values determined at normal temperature (25° C.) unless otherwise noted.
(§1) The alcohol used as the poorly water-soluble solvent has a vapor pressure at 20° C. of 0.5 mmHg or less and a surface tension of 30.0 mN/m or more as described above. When a poorly water-soluble alcohol having a vapor pressure at 20° C. of more than 0.5 mmHg forms a film on an ejection opening of a recording head, the film evaporates unfortunately, and the effect of suppressing water evaporation is reduced. In consideration of this point, the poorly water-soluble alcohol preferably has a vapor pressure at 20° C. of 0.2 mmHg or less and more preferably 0.1 mmHg or less. Meanwhile, a poorly water-soluble alcohol having a surface tension of less than 30.0 mN/m has a weak intermolecular force, and thus the poorly water-soluble alcohol cannot form a film even when separated from an ink. In consideration of this point, the poorly water-soluble alcohol preferably has a surface tension of 36.0 mN/m or more. The poorly water-soluble alcohol preferably has a surface tension of 50 mN/m or less.

[2] = Partition coefficient (n-octanol / water), common logarithm; conditions: for LogPA: poorly water-soluble alcohol (solvent A); for LogPB: highly water-soluble solvent (solvent B); for Log partition coefficient: solvents used in Comparative Examples
Vapor pressure at 20° C. = assay type: physicochemical
Protocol: as §1

[3] = solvents used in Comparative Examples

SMILES | Solubility [1] | Surface tension (Surface tension) | LogPA [2] | Vapor pressure (Vapor pressure at 20° C.) | LogPB [2] | also measured
OCCCc1ccccc1 [3-Phenyl-1-propanol] | 0.57 g/100 g-H2O | 38.9 mN/m | 1.88 | 0.0 mmHg |  | 
C=CC(C)(O)CCC=C(C)C (centres unmarked) [Linalool] |  |  |  |  |  | Solubility [1, 3]: 1.50 g/100 g-H2O; Surface tension (Surface tension; [3]): 26.6 mN/m; Vapor pressure (Vapor pressure at 20° C.; [3]): 0.2 mmHg
CC(O)COc1ccccc1 (centres unmarked) [1-Phenoxy-2-propanol] | 1.10 g/100 g-H2O | 37.7 mN/m | 1.51 | 0.0 mmHg |  | 
COCCOCCO [Methyl carbitol] |  |  |  |  | −1.16 | 
OCc1ccccc1 [Benzyl alcohol] | 4.29 g/100 g-H2O | 39.0 mN/m | 1.03 | 0.1 mmHg |  | 
OCCOc1ccccc1 [2-Phenoxyethanol] | 2.67 g/100 g-H2O | 40.0 mN/m | 1.16 | 0.0 mmHg |  | 
O=CCc1ccccc1 [Phenylacetaldehyde] |  |  |  |  |  | Surface tension (Surface tension; [3]): 35.9 mN/m; Vapor pressure (Vapor pressure at 20° C.; [3]): 0.4 mmHg
CC(O)Cc1ccccc1 (centres unmarked) [1-Phenyl-2-propanol] | 0.58 g/100 g-H2O | 37.3 mN/m | 1.71 | 0.1 mmHg |  | 
OCC(O)CO [Glycerol] |  |  |  |  | −2.32 | 
O=C1CCCN1 [2-Pyrrolidone] |  |  |  |  | −1.01 | 
CC(=O)OCc1ccccc1 [Benzyl acetate] |  |  |  |  |  | Solubility [1, 3]: 0.30 g/100 g-H2O; Surface tension (Surface tension; [3]): 35.9 mN/m; Log partition coefficient [2]: 1.84; Vapor pressure (Vapor pressure at 20° C.; [3]): 0.2 mmHg
OCCc1ccccc1 [Phenethyl alcohol] | 2.20 g/100 g-H2O | 39.7 mN/m |  | 0.1 mmHg |  | 
OCCO [Ethylene glycol] |  |  |  |  | −1.69 | 
COc1ccc(C=O)cc1 [p-Anisaldehyde] |  |  |  |  |  | Solubility [1, 3]: 0.40 g/100 g-H2O; Surface tension (Surface tension; [3]): 37.2 mN/m; Vapor pressure (Vapor pressure at 20° C.; [3]): 0.0 mmHg
CCCCCO [Example 1-Pentanol, 1-Pentanol] |  |  |  |  |  | Solubility [1, 3]: 2.20 g/100 g-H2O; Surface tension (Surface tension; [3]): 25.5 mN/m; Log partition coefficient [2]: 1.41; Vapor pressure (Vapor pressure at 20° C.; [3]): 1.5 mmHg
CC(O)CO (centres unmarked) [Propylene glycol] |  |  |  |  | −1.34 | 
OCCOCCOCCO [Triethylene glycol] | ≥ 20 g/100 g-H2O |  |  |  | −1.87 | 
OCCCCc1ccccc1 [4-Phenyl-1-butanol] | 0.10 g/100 g-H2O | 38.3 mN/m | 2.40 | 0.0 mmHg |  | 
